Test system: apyrase
Experiment: Screen for apyrase inhibitors (Method 1, in vitro phosphate-release absorbance assay)
Type: biochemical
Conditions: inhibitor conc at 1 mM stock, 1 hr room temperature, absorbance 630 nm; rounded average of two assay results
Method in brief: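 Phosphate-release colorimetric assay (Windsor method) in 60 mM Hepes, 3 mM MgCl2, 3 mM CaCl2, 3 mM ATP, pH 6.5, with compound or DMSO control added. Released phosphate developed with ammonium molybdate and ascorbic acid/TCA, then stopped with citrate/acetic acid.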

Point of comparison: `CCOc1ccc(Br)cc1S(=O)(=O)Nc1ccc(NC(=O)c2ccccc2F)cc1` [I-1004, N-(4-((5-bromo-2-ethoxyphenyl)sulfonamido)phenyl)-2-fluorobenzamide], “% Inhibition of Apyrase” value 46%. Against it:
- Cc1ccc(NC(=O)c2ccc(NS(=O)(=O)c3ccc(F)c(F)c3)cc2)cc1F [I-924, 4-((3,4-difluorophenyl)sulfonamido)-N-(3-fluoro-4-methylphenyl)benzamide] — higher, 57%
- O=C(Nc1cccc(F)c1)c1ccc(Cl)c(S(=O)(=O)N2CCc3ccccc32)c1 [I-537, 4-chloro-N-(3-fluorophenyl)-3-(indolin-1-ylsulfonyl)benzamide] — higher, 54%
- COc1ccc(N(C)S(=O)(=O)c2cccc(C(=O)Nc3ccc4c(c3)OCCO4)c2)cc1 [I-563, N-(2,3-dihydrobenzo[b][1,4]dioxin-6-yl)-3-(N-(4-methoxyphenyl)-N-methylsulfamoyl)benzamide] — higher, 51%
- O=C(Nc1ccccc1)c1ccccc1NS(=O)(=O)c1cccc(C(F)(F)F)c1 [I-377, N-phenyl-2-((3-(trifluoromethyl)phenyl)sulfonamido) benzamide] — lower, 20%
- O=C(Nc1cccc([N+](=O)[O-])c1)c1cc(S(=O)(=O)Nc2ccc(F)cc2)ccc1Cl [I-52, 2-chloro-5-(N-(4-fluorophenyl)sulfamoyl)-N-(3-nitrophenyl)benzamide] — lower, 10%
- COc1ccc([N+](=O)[O-])cc1NC(=O)c1cccc(S(=O)(=O)N2CCc3ccccc32)c1 [I-263, 3-(indolin-1-ylsulfonyl)-N-(2-methoxy-5-nitrophenyl)benzamide] — higher, 59%
- COc1ccc(NC(=O)c2cccc(S(=O)(=O)N3CCc4ccccc43)c2)cc1 [I-454, 3-(indolin-1-ylsulfonyl)-N-(4-methoxyphenyl)benzamide] — higher, 60%
- O=C(Nc1ccc(Br)cc1)c1cccc(S(=O)(=O)N2CCc3ccccc32)c1 [I-189, N-(4-bromophenyl)-3-(indolin-1-ylsulfonyl)benzamide] — higher, 70%
- O=C(CNC(=O)c1ccccc1F)Nc1cccc(S(=O)(=O)Nc2ccc(Br)cc2)c1 [I-205, N-(2-((3-(N-(4-bromophenyl)sulfamoyl)phenyl)amino)-2-oxoethyl)-2-fluorobenzamide] — higher, 74%
- Cn1nc(C(=O)Nc2cccc(S(=O)(=O)Nc3cccc(C(F)(F)F)c3)c2)c2ccccc2c1=O [I-750, 3-methyl-4-oxo-N-(3-(N-(3-(trifluoromethyl)phenyl)sulfamoyl)phenyl)-3,4-dihydrophthalazine-1-carboxamide] — lower, 41%
- O=C(Nc1ccc2c(c1)OCO2)c1ccc(C(=O)Nc2ccc3c(c2)OCO3)cc1 [I-876, N1,N4-bis(benzo[d][1,3]dioxol-5-yl)terephthalamide] — higher, 54%
- Cc1ccc(C)c(S(=O)(=O)Nc2cccc(C(=O)Nc3cnccn3)c2)c1 [I-669, 3-((2,5-dimethylphenyl)sulfonamido)-N-(pyrazin-2-yl)benzamide] — lower, 7%
- Cc1cccc(NC(=O)c2ccc(NS(=O)(=O)c3ccc(Br)cc3)cc2)c1C [I-913, 4-((4-bromophenyl)sulfonamido)-N-(2,3-dimethylphenyl)benzamide] — higher, 59%
- COc1ccccc1NS(=O)(=O)c1ccc(C(=O)Nc2ccc(F)c([N+](=O)[O-])c2)cc1 [I-414, N-(4-fluoro-3-nitrophenyl)-4-(N-(2-methoxyphenyl)sulfamoyl)benzamide] — lower, 15%
- O=C(Nc1ccccn1)c1cccc(NS(=O)(=O)c2ccc(Br)cc2)c1 [I-627, 3-((4-bromophenyl)sulfonamido)-N-(pyridin-2-yl)benzamide] — higher, 71%
- O=C(Nc1cccc(S(=O)(=O)Nc2ccc(Cl)cc2)c1)c1cnccn1 [I-775, N-(3-(N-(4-chlorophenyl)sulfamoyl)phenyl)pyrazine-2-carboxamide] — lower, 3%
- CN(c1ccccc1)S(=O)(=O)c1ccccc1C(=O)Nc1cccc(C(N)=O)c1 [I-814, N-(3-carbamoylphenyl)-2-(N-methyl-N-phenylsulfamoyl)benzamide] — lower, 39%
- O=C(Nc1ccc(S(=O)(=O)Nc2cccc(C(F)(F)F)c2)cc1)c1cc([N+](=O)[O-])cc([N+](=O)[O-])c1 [I-975, 3,5-dinitro-N-(4-(N-(3-(trifluoromethyl)phenyl)sulfamoyl)phenyl) benzamide] — higher, 62%
- Cc1ccnn1-c1ccc(C(=O)Nc2ccc(NS(=O)(=O)c3ccc4c(c3)OCCO4)cc2)cc1 [I-1003, N-(4-((2,3-dihydrobenzo[b][1,4]dioxine)-6-sulfonamido)phenyl)-4-(5-methyl-1H-pyrazol-1-yl)benzamide] — higher, 47%
- COc1ccc(N(C)S(=O)(=O)c2cccc(C(=O)Nc3ccc4c(c3)OCO4)c2)cc1 [I-479, N-(benzo[d][1,3]dioxol-5-yl)-3-(N-(4-methoxyphenyl)-N-methylsulfamoyl)benzamide] — higher, 58%
- NC(=O)C1CCCN(C(=O)c2cccc(S(=O)(=O)Nc3ccc(Br)cc3)c2)C1 (stereo not drawn) [I-282, 1-(3-(N-(4-bromophenyl)sulfamoyl)benzoyl)piperidine-3-carboxamide] — lower, 34%
- CCOc1ccc(NS(=O)(=O)c2cccc(NC(=O)c3ccncc3)c2)cc1Br [I-765, N-(3-(N-(3-bromo-4-ethoxyphenyl)sulfamoyl)phenyl) isonicotinamide] — lower, 15%
- Cc1ccc(NS(=O)(=O)c2cccc(C(=O)Nc3cccc(S(N)(=O)=O)c3)c2)cc1 [I-1008, N-(3-sulfamoylphenyl)-3-(N-(p-tolyl)sulfamoyl)benzamide] — lower, 29%
- COc1ccc(CC(=O)Nc2cccc(S(=O)(=O)Nc3ccc(Br)cc3)c2)cc1F [I-330, N-(3-(N-(4-bromophenyl)sulfamoyl)phenyl)-2-(3-fluoro-4-methoxyphenyl)acetamide] — higher, 65%
- O=C(NCCCN1CCOCC1)c1cccc(S(=O)(=O)Nc2ccc(Br)cc2)c1 [I-284, 3-(N-(4-bromophenyl)sulfamoyl)-N-(3-morpholinopropyl)benzamide] — lower, 27%
- Cc1ccccc1NS(=O)(=O)c1cccc(C(=O)Nc2cccc([N+](=O)[O-])c2)c1 [I-40, N-(3-nitrophenyl)-3-(N-(o-tolyl)sulfamoyl)benzamide] — lower, 14%
- COc1ccc(S(=O)(=O)N2CCc3ccccc32)cc1C(=O)Nc1ccc(C(F)(F)F)cc1 [I-505, 5-(indolin-1-ylsulfonyl)-2-methoxy-N-(4-(trifluoromethyl)phenyl)benzamide] — higher, 57%
- O=C(Nc1cccc(S(=O)(=O)Nc2ccc(Br)cc2)c1)c1ccc2ncsc2c1 [I-199, N-(3-(N-(4-bromophenyl)sulfamoyl)phenyl)benzo[d]thiazole-6-carboxamide] — higher, 66%
- Cc1nc2ccc(NC(=O)c3cccc(S(=O)(=O)N4CCc5ccccc54)c3)cc2s1 [I-592, 3-(indolin-1-ylsulfonyl)-N-(2-methylbenzo[d]thiazol-6-yl)benzamide] — lower, 41%
